Laboratory results: US6335339B1, “Triazine antiviral compounds” (Scriptgen Pharmaceuticals, Inc., priority 1998, dated 2002)

Assays:
[1] = tested on: 2.2.15 cells; experiment: neutral red dye uptake cytotoxicity; format: cell-based; settings: 9 days treatment, read-out: 50% Cell Death CC50
Experimental: Further, the antiviral effect of any compound must be measured against its toxicity. Cytotoxicity is measured by the neutral red uptake method using the same cells used for antiviral activity.
2b. Compounds were prepared for toxicity treatment as follows: For each compound, a total of 4 concentrations were examined. This required 9 sets of 4 sterile, 1.1 ml minitubes (36 tubes per compound). Into the first tube of each set, sufficient compound was aliquoted to make up 465 μl of the highest test concentration. The other tubes were left empty. The tubes were covered with the rack lids, and stored at −20° C. or at an appropriate temperature. Tubes for the last day of treatment for toxicity testing contain the same amount of compound as used the previous days (not 3xas for the antiviral assays).
3b. The cytotoxicity of test compounds was analyzed in a 3.3-fold dilution series as follows. […] (155 μl×3) of RP2 were added to the first tube (containing the aliquot of compound) and 310 μL (155 μl×2) RP2 to each of the 3 remaining tubes. 150 μl of test compound-containing medium were serially transferred from the first tube to the other 3 tubes.
5. A single plate was used for the toxicity treatments for each test compound (up to 7 compounds per plates since the top row were reserved for untreated cells on every toxicity plate). To initiate the treatments, the culture medium was removed, and 100 μl of each dilution of every compound were added to each of 3 wells using a configuration similar to that shown above for the antiviral treatments. The untreated cells received 100 μl RP2 per well. Treatment was repeated daily for 9 days.
The antiviral effect of any compound was evaluated relative to its toxicity. Cells were seeded and treated following the guidelines above, after which a neutral red dye uptake assay was performed to assess toxicity as described below. Other assays of cytotoxicity (e.g., MTT) can be substituted for the procedure described below. Note that this procedure assesses toxicity under culture and treatment conditions which are identical to those used for the antiviral analyses, thereby permitting a determination as to whether the reduction in virus production due to a specific antiviral effect or due to a cytotoxic effect on the host cell. Since the cultures, by necessity, are at confluence, the cytotoxic effects of the test compounds will probably be reduced relative to the cytotoxic effects that would be expected for actively dividing cells.
1. Cultures were treated with test compounds on the designated toxicity plates as described above.
2. The culture medium was carefully removed 24 hours following the 9th day of treatment. The monolayer was fully removed in the top left three wells (row A, col. 1-3). These wells were used as “blanks” for the plate reader.
3. 100 μl DPBS (containing 0.01% neutral red dye) were added to each well, including the empty wells, and Incubated in the tissue culture incubator for 30 minutes.
4. The dye was removed carefully and gently, using a multichannel pipetman since the monolayers can become fragile after incubation with neutral red dye. 200 μl DPBS were added to all the wells taking care not to displace the monolayers. The DPBS was removed and 100 μl 50% EtOH/1% glacial acetic acid (in H2O) were added to each well. The plates were mixed for 15 minutes on an orbital platform shaker (120-150 RPM) to allow for full extraction of the dye from the cells.
5. Optical absorbance at 510 nm was read in an ELISA type plate reader, using the 3 empty wells to set the background. An average absorbance value was calculated for the 9 untreated cultures on a plate, and the absorbance of dye for the treated cultures on the same plate was expressed as a percentage of that value. This procedure was repeated for each individual plate. […]

[2] = tested on: HBV; experiment: antiviral assay in 2.2.15 cells producing HBV (virion DNA dot blot); format: cell-based, Hepatitis B virus; settings: extra-cellular virus reduced by 50%; 2.2.15 cells, 9 days treatment; read-out: Antiviral EC50
Source text: Several cell lines and cell culture assays have been developed to identify potential therapeutics effective against chronic HBV infection. One of these cell lines, 2.2.15, has been used in a standardized assay that has repeatedly proven to be an accurate model of chronic cellular HBV replication and a predictive model of antiviral response for chronic hepadnaviral infection in vivo. 2.2.15 cells contain copies of the complete HBV genome integrated into the cell's genome, and 2.2.15 cells are not susceptible to infection by HBV. (Sells, M. A. et al., J. Virol. 62 (8): 2836-2844 (1988)). These cells express HBV genes producing complete HBV particles capable of infecting chimpanzees (Acs, G. et al., Proc. Natl. Acad. Sci. USA 84 (13): 4641-4644 (1987)). Briefly, 2.2.15 cells are cultured and pretreated with a test compound for about 9 days, at which point the media are harvested and subjected to dot-blot hybridization to detect HBV virion DNA.
The antiviral activity of the compounds of the present invention is measured by the methods described in Korba and Gering, Antiviral Res. 19: 55-70 (1992).
This assay format is well suited to the screening of test compounds for potential antiviral activity. The assay provides a threshold assessment of antiviral activity by measuring (i) the levels of HBV virion release from the cells and (ii) cytotoxicity. Two rows of cells were used for each compound, and 4 rows for the assay controls (two for untreated, and two for positive antiviral control, e.g., 3TC). After incubating in the presence of test compound for 9 days, the media were harvested, transferred to 96-well U-bottom plates, and centrifuged. The supernatants were transferred to tubes for dot blot hybridization analysis of HBV virion DNA. The medium was aspirated off of the toxicity plates and discarded. Toxicity plates were then incubated with neutral red dye (MTT can also be used if preferred), washed with DPBS, developed with an acetic acid-ethanol solution, and assayed in a plate reader.
1. 2.2.15 cells were seeded into 96-well, flat bottom tissue culture plates as described above. Duplicate plates were used for the antiviral treatments for each test compound (up to 8 compounds per pair of plates); after three to four days, cells were confluent and medium was yellow in color; the medium was removed and replaced with 100 μl RP2 24 hours before the beginning of drug treatment.
i) For each compound, a total of 4 concentrations were examined; this required 9 sets of 4 sterile, 1.1 ml minitubes (36 tubes per compound). Into the first tube of each set, sufficient compound was aliquoted to make up 700 μl (for 10-fold dilution series) or 980 μl (for 3.3-fold dilution series) of the highest test concentration; the other tubes were left empty.
i) For a 10-fold dilution series: to the first (compound containing) tube was added 700 μl (175 μl×4). 630 μl (210 μl×3) RP2 culture medium was added to the remaining 3 tubes. The first tube was mixed by pipeting up and down with a pipetman (a multichannel pipetman permits the simultaneous processing of multiple compounds). 70 μl of test compound-containing medium were serially transferred from the first tube to the other 3 tubes, taking care to thoroughly mix each tube before transferring medium;
b) 100 μl of each dilution of every compound was added to each of 6 wells (3 wells per plate) using the configuration listed below as an example. The lowest concentration was added first, and the same tips were used to add the higher concentrations. The untreated cells received 100 μl RP2 per well (untreated cells have to be carried on only one pair of the antiviral assay plates).
c) Treatments were repeated daily for 9 days. For the last day of treatment, and additional 200 μl RP2 were added to each well of the antiviral assay plates after the wells are treated with the test compounds (a total of 300 μl medium per well).
6. […]

Row | SMILES | CC50 [1] [µM] | EC50 [2] [µM]
1 | COc1c(C=NNc2nc(N3CCCC3)nc(N3CCOCC3)n2)cccc1[N+](=O)[O-] [Compound 193] | 666 | > 100
2 | CCN(CC)c1nc(Nc2cccc(Br)c2)nc(Nc2cc(C)ccc2C)n1 [Compound 202] | > 300 | > 100
3 | COc1ccc(Nc2nc(NN=Cc3ccc(O)cc3O)nc(N3CCOCC3)n2)cc1 [Compound 164] | 201 | 0.863
4 | Cc1ccc(Nc2nc(NN=Cc3ccc(Cl)cc3)nc(N3CCOCC3)n2)cc1Cl [Compound 196] | 381 | > 100
5 | FC(F)(F)c1cccc(Nc2nc(NN=Cc3ccc(Cl)cc3)nc(N3CCOCC3)n2)c1 [Compound 120] | 45 | > 100
6 | Cc1ccccc1Nc1nc(NN=Cc2ccc3c(c2)OCO3)nc(Nc2ccc([N+](=O)[O-])cc2)n1 [Compound 29] | 15 | 1.1
7 | C(=Cc1ccccc1)C=NNc1nc(Nc2ccccc2)nc(N2CCCC2)n1 [Compound 213] | > 300 | > 100
8 | COc1ccccc1C=NNc1nc(NCc2ccccc2)nc(Nc2ccccc2)n1 [Compound 195] | 400 | > 100
9 | O=C(CSc1nc(SCC(=O)Nc2ccccc2C(F)(F)F)nc(SCC(=O)Nc2ccccc2C(F)(F)F)n1)Nc1ccccc1C(F)(F)F [Compound 212] | > 300 | > 100
